Data on 13 molecules can be found in patent publication US8710064B2, “2-aryl-4-quinazolinones and their pharmaceutical compositions” (China Medical University, priority 2011, dated 2014).

SMILES strings stand for the structures. A value given as a limit tells only on which side of the number the result lay.

One data set concerns M21. Nature of the data set: trypan blue exclusion assay, M21 cells. The class given is cell-based. The settings on record: Homo sapiens; M21 skin cancer; trypan blue exclusion assay; read-out: IC50 M21. The protocol: M21 cell line (human malignant melanoma) was provided by Dr. Feng-Yao Tang (China Medical University, Taiwan). Cells were grown in monolayer culture in RPMI-1640 medium, Eagle's minimum essential medium or Dulbecco's modified Eagles medium (Invitrogen Corporation, Grand Island, N.Y., USA) containing 10% fetal bovine serum (FBS; HyClone, Logan, Utah, USA), 100 U/ml penicillin and 100 μg/ml streptomycin (Gibco BRL, Rockville, Md., USA).
(§1) Cell viability was also determined by trypan-blue exclusion assay. Cells were seeded in 6-well plates (2×10^4/well) for trypan blue exclusion assay, and incubated for 24 hours at 37° C. Culture medium containing test compound or DMSO (0.006%) was added to each well, and cells were incubated at 37° C. At indicated time points (0, 24, 48, 72 and 96 hr), cells were suspended with 0.05% trypsin-EDTA, and stained with trypan-blue dye (0.4%) (Sigma). The cell viability was evaluated by the percentage of death relative to the total cell, and cell growth curve was determined by number of live cells relative to the total number of cells.
(§2) The anti-proliferation effects of Compounds 17-31 on M21, CH27, H460, Hep3B and HSC-3 cells were evaluated by the trypan blue exclusion assay.

The test system of another data set is CH27. Nature of the data set: trypan blue exclusion assay, CH27 cells. In kind it is cell-based. Conditions: CH27 human lung squamous carcinoma. The protocol: CH27 cells (Human lung squamous carcinoma) were grown in monolayer culture in Dulbecco's modified Eagle's medium (DMEM; Life Technologies, Rockville, Md., USA) containing 5% FBS (HyClone, Logan, Utah, USA), 100 U/ml penicillin, […] streptomycin (Gibco BRL, Rockville, Md., USA) and 2 mM glutamine (Merck, Darmstadt, Germany).
as §1, §2

A further data set deals with H460. Nature of the data set: trypan blue exclusion assay, H460 cells. Conditions: NCI-H460, H460 human non-small cell lung cancer. In kind it is cell-based. The protocol:
(§3) Hep3B (human hepatocellular carcinoma) and H460 (lung non-small carcinoma) cells were grown in monolayer culture in Dulbecco's modified Eagle's medium (DMEM) (Life Technologies, Rockville, Md., USA) containing 5% fetal bovine serum (HyClone, Logan, Utah, USA), 100 U/ml penicillin and 100 μg/ml streptomycin (Gibco BRL, Rockville, Md., USA) and 2 mM glutamine (Merck, Darmstadt, Germany).
as §1, §2

Another data set has as its system Hep3B. Nature of the data set: trypan blue exclusion assay, Hep3B cells. The class given is cell-based. Conditions: Hep3B human hepatoma. The protocol: as §3, §1, §2
The test system of a further data set is HSC-3. Nature of the data set: trypan blue exclusion assay, HSC-3 cells. Conditions: for IC50: HSC-3 human squamous carcinoma, trypan blue exclusion assay. The class given is cell-based, human. The procedure:
The HSC-3 (human oral squamous cell carcinoma) were cultured in 1:1 Dulbecco's Modified Eagle's Medium (DMEM) and Ham's Nutrient Mixture F-12, containing 10% FBS (HyClone, Logan, Utah, USA), 100 U/ml penicillin, 100 μg/ml streptomycin (Gibco BRL, Rockville, Md., USA) and 2 mM glutamine (Merck, Darmstadt, Germany).
as §1, §2

In data set [1] the test system is M21, CH27, H460, Hep3B and HSC-3 cells. Nature of the data set: trypan blue exclusion assay, cancer cell panel (summary). Conditions: summary of Table 2. The class given is cell-based. The procedure:
as §1, §2

Another data set deals with C6 rat glioma. Nature of the data set: MTS cell viability assay, C6 glioma cells. In kind it is cell-based. The settings on record: 48 hours, mean±SEM, n=3. The protocol:
(§4) The human glioma cell lines U87, U251, T98G, U373, and rat glioma cell line RT2 provided by Dr. Michael Hsiao (Genomics Research Center, Academia Sinica, Taiwan) were cultured in Dulbecco's Modified Eagle medium (DMEM) (Caisson) supplemented with 10% fetal bovine serum (FBS) (Sigma-Aldrich), 2 mM L-glutamine (Caisson), 100 U/ml penicillin, and 100 μg/ml streptomycin (Caisson). The rat glioma C6 cell line provided by Dr. Shun-Fen Tzeng (National Cheng Kung University, Taiwan) was cultured in DMEM/F12 (Caisson) supplemented with 10% fetal bovine serum, 2 mM L-glutamine, 100 U/ml penicillin, and 100 μg/ml streptomycin. The human normal glia cell line SVGP12, kindly provided by Dr. Michael Hsiao, was cultured in Minimum Essential Medium (MEM) (Invitrogen) supplemented with 10% fetal bovine serum, 2 mM L-glutamine, 100 U/ml penicillin, and […]. Primary glia cells were prepared by surgery. Cerebral cortices without meninges were dissected from postnatal (P0-P2) Sprague-Dawley (SD, NCKU Laboratory Animal Center) rats and dissociated in 0.05% trypsin-EDTA (Biowest) at 37° C. for 10 min. Culture medium was added and pipetted for several times, and supernatant was removed after a centrifugation at 1,000 rpm for 5 minutes. […]
(§5) Cell proliferation was determined by MTS (tetrazolium compound, 3-(4,5-dimethylthiazol-2-yl)-5-(3-carboxymethoxyphenyl)-2-(4-sulfophenyl)-2H-tetrazolium) assay (Promega). […] The absorbance of soluble formazan was measured at 490 nm with microplate reader (Molecular device). The cell viability was determined by the percentage of the absorption relative to untreated control. […]
(§6) To investigate the effect of 2-aryl-4-quinazolinone in accordance with the present invention on cell proliferation, glioma cell lines were treated with MJ-66, MJ-68, or MJ-78. […] The cell viability of each group was analyzed by MTS assay (mean±SEM, n=3).
Background: Tetrazolium assays rely on reduction of a dye to a coloured formazan, in cell work by metabolically active cells.

Data set [2] deals with U87 human glioma cell lines. Nature of the data set: MTS cell viability assay, U87 glioma cells. The class given is cell-based. The settings on record: 48 hours, mean±SEM, n=3. The protocol:
as §4, §5, §6

What is called IC50 is the concentration that inhibits the measured activity by half. On to `O=c1[nH]c(-c2cccc3ccccc23)nc2ccc(N3CCOCC3)cc12` [Compound 29, 6-(Morpholino)-2-(naphthalen-1-yl)quinazolin-4-one], for which the IC50 is 2.33 µM in the data set on M21; 0.597 µM in the data set with CH27; 0.432 µM in the data set on H460; 1.06 µM in the data set with Hep3B; 0.614 µM with HSC-3. Besides, in data set [1], the “cytotoxic effects toward cancer cells” value is on record as “exhibited cytotoxic effects”.
By melting point is commonly meant the temperature of the solid-liquid transition. In the case of `O=c1[nH]c(-c2csc3ccccc23)nc2ccc(N3CCCC3)cc12` [Compound 25, 6-(Pyrrolidin-1-yl)-2-(benzo[b]thiophen-3-yl)quinazolin-4-one], the melting point is > 300 °C. Moreover, the IC50 with M21 is > 10 µM. In the data set with CH27, the half-maximal inhibitory concentration (IC50) was > 10 µM. Moreover, in the data set on H460, the IC50 is > 10 µM. Besides, the IC50 with Hep3B was > 10 µM. The concentration for half-maximal inhibition (IC50) in the data set with HSC-3 is > 10 µM. In addition, in the data set on C6 rat glioma, the half-maximal inhibitory concentration (IC50) is > 1 µM. The half-inhibitory concentration (IC50) in data set [2] was > 1 µM.
For the molecule `CN(C)c1ccc2nc(-c3cccc4ccccc34)[nH]c(=O)c2c1` [Compound 20, 6-(N,N-Dimethylamino)-2-(naphthalen-1-yl) quinazolin-4-one], the IC50 with M21 came out at 3.77 µM; with CH27, 0.447 µM; in the data set with H460 it was 0.506 µM; with Hep3B, 8.63 µM; in the data set on HSC-3, 0.202 µM. The “cytotoxic effects toward cancer cells” value in [1] is reported as “exhibited cytotoxic effects”.
On to `O=c1[nH]c(-c2csc3ccccc23)nc2ccc(N3CCOCC3)cc12` [Compound 31, 6-(Morpholino)-2-(benzo[b]thiophen-3-yl) quinazolin-4-one], for which the melting point is > 300 °C. In addition, in the data set with M21, the half-inhibitory concentration (IC50) was > 10 µM. Besides, the IC50 in the data set with CH27 was > 10 µM. Also, in the data set on H460, the half-maximal inhibitory concentration (IC50) is > 10 µM. Further, the IC50 with Hep3B was > 10 µM. For the same molecule, the IC50 with HSC-3 was > 10 µM.
As to `CN(C)c1ccc2nc(-c3csc4ccccc34)[nH]c(=O)c2c1` [Compound 22], the melting point was > 300 °C. Moreover, the IC50 in the data set with M21 is > 10 µM. Moreover, the IC50 with CH27 is > 10 µM. In the data set with H460, the IC50 is > 10 µM. Further, the IC50 in the data set on Hep3B was > 10 µM. Moreover, the concentration for half-maximal inhibition (IC50) in the data set with HSC-3 is > 10 µM.
In the case of `O=c1[nH]c(-c2c[nH]c3ccccc23)nc2ccc(N3CCCCC3)cc12` [Compound 27, 6-(Piperidin-1-yl)-2-(1H-indol-3-yl)quinazolin-4-one], the IC50 was 8.99 µM with M21; > 10 µM with CH27; 6.86 µM in the data set with H460; 5.65 µM in the data set with Hep3B; > 10 µM with HSC-3. The “cytotoxic effects toward cancer cells” value in data set [1] is given as “exhibited cytotoxic effects”.
`O=c1[nH]c(-c2csc3ccccc23)nc2ccc(N3CCCCC3)cc12` [Compound 28]: the melting point was > 300 °C. Besides, in the data set with M21, the IC50 is > 10 µM. In the data set with CH27, the IC50 is > 10 µM. In the data set on H460, the half-inhibitory concentration (IC50) is > 10 µM. Also, the IC50 in the data set with Hep3B was > 10 µM. In addition, the IC50 with HSC-3 is > 10 µM.
`COc1ccc2nc(-c3c[nH]c4ccccc34)[nH]c(=O)c2c1` [Compound 18, 6-Methoxy-2-(1H-indol-3-yl) quinazolin-4-one] returned a melting point of 311 to 312 °C. Moreover, in the data set on M21, the half-maximal inhibitory concentration (IC50) was > 10 µM. Moreover, the IC50 in the data set on CH27 was > 10 µM. Besides, the IC50 in the data set with H460 was > 10 µM. Also, the IC50 with Hep3B was > 10 µM. Moreover, the IC50 with HSC-3 was > 10 µM.
Turning to `O=c1[nH]c(-c2c[nH]c3ccccc23)nc2ccc(N3CCCC3)cc12` [Compound 24, 6-(Pyrrolidin-1-yl)-2-(1H-indol-3-yl)quinazolin-4-one], the IC50 with M21 came to 7.63 µM; with CH27, 8.7 µM; in the data set on H460 it was 8.81 µM; in the data set on Hep3B, 7.39 µM; with HSC-3 it was 1.89 µM. Moreover, the “cytotoxic effects toward cancer cells” value in [1] is “exhibited cytotoxic effects”.
For the molecule `CN(C)c1ccc2nc(-c3c[nH]c4ccccc34)[nH]c(=O)c2c1` [Compound 21, 6-(N,N-Dimethylamino)-2-(1H-indol-3-yl)quinazolin-4-one], the melting point is > 300 °C. Moreover, the IC50 with M21 was > 10 µM. Moreover, in the data set on CH27, the concentration for half-maximal inhibition (IC50) was > 10 µM. Moreover, in the data set on H460, the IC50 was > 10 µM. Moreover, the half-maximal inhibitory concentration (IC50) in the data set with Hep3B was > 10 µM. For the same molecule, the IC50 with HSC-3 is > 10 µM.
`O=c1[nH]c(-c2c[nH]c3ccccc23)nc2ccc(N3CCOCC3)cc12` [Compound 30, 6-(Morpholino)-2-(1H-indol-3-yl)quinazolin-4-one]: the melting point is > 300 °C. In addition, the IC50 in the data set on M21 was > 10 µM. In addition, the IC50 in the data set on CH27 was > 10 µM. Moreover, the half-inhibitory concentration (IC50) in the data set with H460 was > 10 µM. In the data set on Hep3B, the concentration for half-maximal inhibition (IC50) was > 10 µM. In addition, the half-maximal inhibitory concentration (IC50) in the data set on HSC-3 was > 10 µM.
On to `COc1ccc2nc(-c3cccc4ccccc34)[nH]c(=O)c2c1` [Compound 17, 6-Methoxy-2-(naphthalen-1-yl) quinazolin-4-one], for which the IC50 in the data set on M21 is 6.09 µM; with CH27, 0.089 µM; in the data set on H460 it was 0.079 µM; with Hep3B, 1.87 µM; in the data set with HSC-3, > 10 µM. For the same molecule, the “activity on HSC-3 cells” value in the data set with HSC-3 (summary of Table 2) was “inactive”. Besides, the “cytotoxic effects toward cancer cells” value in data set [1] is reported as “exhibited cytotoxic effects”.
With `COc1ccc2nc(-c3csc4ccccc34)[nH]c(=O)c2c1` [Compound 19, 6-Methoxy-2-(benzo[b]thiophen-3-yl) quinazolin-4-one], the melting point was in the range of 289 to 290 °C. Also, the IC50 with M21 is > 10 µM. Also, the half-maximal inhibitory concentration (IC50) in the data set on CH27 is > 10 µM. Further, the half-inhibitory concentration (IC50) with H460 is > 10 µM. In addition, the IC50 in the data set with Hep3B is > 10 µM. Also, the IC50 in the data set on HSC-3 is > 10 µM.
